In PubChem BioAssay (NCI):
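48-hour exposure; five concentrations; linearly interpolated endpoints. The concentration for 50% growth inhibition is given as GI50. TGI: concentration producing complete growth inhibition.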

Key:
Test in all cases: inhibition of tumour cell growth, NCI panel, 48 h
[1] = tested on: SF-295 CNS
[2] = tested on: HL-60(TB) leukemia
[3] = tested on: A549 NSCLC
[4] = tested on: SK-MEL-2 melanoma
[5] = tested on: MDA-MB-468 breast
[6] = tested on: SF-539 CNS
[7] = tested on: SN12C renal
[8] = tested on: T-47D breast
[9] = tested on: A498 renal
[10] = tested on: OVCAR-3 ovarian
[11] = tested on: NCI/ADR-RES ovarian
[12] = tested on: SW-620 colon
[13] = tested on: LOX IMVI melanoma
[14] = tested on: SK-OV-3 ovarian
[15] = tested on: 786-0 renal
[16] = tested on: SNB-75 CNS
[17] = tested on: HOP-92 NSCLC
[18] = tested on: NCI-H460 lung
[19] = tested on: SNB-19 CNS
[20] = tested on: TK-10 renal
[21] = tested on: CCRF-CEM leukemia
[22] = tested on: DU-145 prostate
[23] = tested on: MDA-MB-435
[24] = tested on: SK-MEL-28 melanoma
[25] = tested on: HCT-15 colon
[26] = tested on: M14 melanoma
[27] = tested on: RPMI-8226 leukemia
[28] = tested on: IGROV1 ovarian
[29] = tested on: MCF7 breast
[30] = tested on: HT29 colon
[31] = tested on: UACC-62 melanoma
[32] = tested on: PC-3 prostate
[33] = tested on: HOP-62 NSCLC
[34] = tested on: MOLT-4 leukemia
[35] = tested on: ACHN renal
[36] = tested on: SF-268 CNS
[37] = tested on: HS 578T breast
[38] = tested on: RXF 393 renal
[39] = tested on: CAKI-1 renal
[40] = tested on: EKVX NSCLC
[41] = tested on: OVCAR-8 ovarian
[42] = tested on: UACC-257 melanoma
[43] = tested on: MALME-3M melanoma
[44] = tested on: NCI-H23 lung
[45] = tested on: OVCAR-5 ovarian
[46] = tested on: NCI-H522 lung
[47] = tested on: MDA-MB-231 breast
[48] = tested on: SK-MEL-5 melanoma
[49] = tested on: U251 CNS
[50] = tested on: COLO 205 colon
[51] = tested on: OVCAR-4 ovarian
[52] = tested on: UO-31 renal
[53] = tested on: SR leukemia
[54] = tested on: K-562 leukemia
[55] = tested on: KM12 colon
[56] = tested on: NCI-H226 lung
[57] = tested on: HCC-2998 colon
[58] = tested on: HCT-116 colon
[59] = tested on: BT-549 breast

SMILES: COc1ccc(-c2cc(C(=O)N=Nc3c(O)[nH]c4ccccc34)c3ccccc3n2)cc1
- GI50 [1]: 11.2 µM
- TGI [1]: 24 µM
- GI50 [2]: 13.1 µM
- TGI [2]: > 100 µM
- GI50 [3]: 2.08 µM
- TGI [3]: 4.78 µM
- GI50 [4]: 16 µM
- TGI [4]: 35.2 µM
- GI50 [5]: 4.94 µM
- TGI [5]: 17.3 µM
- GI50 [6]: 3.2 µM
- TGI [6]: 10.2 µM
- GI50 [7]: 11.3 µM
- TGI [7]: 24.4 µM
- GI50 [8]: 8.61 µM
- TGI [8]: 27.2 µM
- GI50 [9]: 21.4 µM
- TGI [9]: 38.6 µM
- GI50 [10]: 3.63 µM
- TGI [10]: 14.4 µM
- GI50 [11]: 3.48 µM
- TGI [11]: 15 µM
- GI50 [12]: 3.91 µM
- TGI [12]: 17.5 µM
- GI50 [13]: 6.17 µM
- TGI [13]: 19.3 µM
- GI50 [14]: 11.6 µM
- TGI [14]: 24.8 µM
- GI50 [15]: 6.88 µM
- TGI [15]: 20.8 µM
- GI50 [16]: 1.94 µM
- TGI [16]: 15.1 µM
- GI50 [17]: 3.26 µM
- TGI [17]: 16.7 µM
- GI50 [18]: 3.32 µM
- TGI [18]: 11.4 µM
- GI50 [19]: 11 µM
- TGI [19]: 23 µM
- GI50 [20]: 17.9 µM
- TGI [20]: 32.9 µM
- GI50 [21]: 9.06 µM
- TGI [21]: > 100 µM
- GI50 [22]: 3.27 µM
- TGI [22]: 12.1 µM
- GI50 [23]: 3.04 µM
- TGI [23]: 12.1 µM
- GI50 [24]: 4.26 µM
- TGI [24]: 14.7 µM
- GI50 [25]: 10.3 µM
- TGI [25]: 24.7 µM
- GI50 [26]: 4.3 µM
- TGI [26]: 17.4 µM
- GI50 [27]: 9.32 µM
- TGI [27]: > 100 µM
- GI50 [28]: 5.07 µM
- TGI [28]: 18.3 µM
- GI50 [29]: 10.7 µM
- TGI [29]: 26.3 µM
- GI50 [30]: 3.59 µM
- TGI [30]: 12.8 µM
- GI50 [31]: 9.93 µM
- TGI [31]: 21.8 µM
- GI50 [32]: 5.2 µM
- TGI [32]: 27.4 µM
- GI50 [33]: 4.19 µM
- TGI [33]: 17.8 µM
- GI50 [34]: 4.93 µM
- TGI [34]: > 100 µM
- GI50 [35]: 11 µM
- TGI [35]: 22.9 µM
- GI50 [36]: 4.43 µM
- TGI [36]: 20.8 µM
- GI50 [37]: 14 µM
- TGI [37]: 65.7 µM
- GI50 [38]: 4.16 µM
- TGI [38]: 15.4 µM
- GI50 [39]: 2.56 µM
- TGI [39]: 11 µM
- TGI [40]: 22.5 µM
- GI50 [41]: 3.13 µM
- TGI [41]: 12.4 µM
- GI50 [42]: 9.71 µM
- TGI [42]: 24.1 µM
- GI50 [43]: 3.14 µM
- TGI [43]: 9.99 µM
- GI50 [44]: 2.91 µM
- TGI [44]: 11.4 µM
- GI50 [45]: 5.75 µM
- TGI [45]: 18.6 µM
- GI50 [46]: 1.88 µM
- TGI [46]: 4.71 µM
- GI50 [47]: 2.8 µM
- TGI [47]: 10.2 µM
- GI50 [48]: 12.1 µM
- TGI [48]: 25 µM
- GI50 [49]: 2.34 µM
- TGI [49]: 6.37 µM
- GI50 [50]: 11.6 µM
- TGI [50]: 26.6 µM
- GI50 [51]: 5.24 µM
- TGI [51]: 20.9 µM
- GI50 [52]: 6 µM
- TGI [52]: 20.1 µM
- GI50 [53]: 4.05 µM
- TGI [53]: > 100 µM
- GI50 [54]: 4.53 µM
- TGI [54]: > 100 µM
- GI50 [55]: 11.1 µM
- TGI [55]: 28.3 µM
- GI50 [56]: 4.1 µM
- TGI [56]: 19.4 µM
- GI50 [57]: 3.87 µM
- TGI [57]: 13.1 µM
- GI50 [58]: 3.18 µM
- TGI [58]: 10.7 µM
- GI50 [59]: 14.5 µM
- TGI [59]: 29 µM

SMILES: Cc1nn(-c2ccccc2)c2nc(C)n(CC(=O)N/N=C/c3ccccc3O)c(=O)c12
- GI50 [1]: 4.79 µM
- TGI [1]: 22.6 µM
- GI50 [2]: 2.13 µM
- TGI [2]: 7.52 µM
- GI50 [3]: 6.12 µM
- TGI [3]: 21.1 µM
- GI50 [5]: 3.36 µM
- TGI [5]: 19.4 µM
- GI50 [6]: 4.46 µM
- TGI [6]: 26.9 µM
- GI50 [7]: 5.64 µM
- TGI [7]: 46 µM
- GI50 [8]: 4.41 µM
- TGI [8]: 36.9 µM
- GI50 [9]: 19.3 µM
- TGI [9]: 83.1 µM
- GI50 [10]: 2.66 µM
- TGI [10]: 28 µM
- GI50 [11]: 3.79 µM
- TGI [11]: 17.9 µM
- GI50 [12]: 4.22 µM
- TGI [12]: > 100 µM
- GI50 [13]: 1.78 µM
- TGI [13]: 14 µM
- GI50 [14]: 6.5 µM
- TGI [14]: 28.5 µM
- GI50 [15]: 6.16 µM
- TGI [15]: 31.8 µM
- GI50 [17]: 3.29 µM
- TGI [17]: 20.6 µM
- GI50 [18]: 3.59 µM
- TGI [18]: 16.2 µM
- GI50 [19]: 7.44 µM
- TGI [19]: 39.2 µM
- GI50 [20]: 7.5 µM
- TGI [20]: 45.4 µM
- GI50 [21]: 2.09 µM
- TGI [21]: 16.8 µM
- GI50 [22]: 6.32 µM
- TGI [22]: > 100 µM
- GI50 [23]: 8.63 µM
- TGI [23]: > 100 µM
- GI50 [24]: 4.58 µM
- TGI [24]: 33.7 µM
- GI50 [25]: 2.26 µM
- TGI [25]: > 100 µM
- GI50 [26]: 2.89 µM
- TGI [26]: 15.6 µM
- GI50 [27]: 5.53 µM
- TGI [27]: 48.4 µM
- GI50 [28]: 6.36 µM
- TGI [28]: 66.3 µM
- GI50 [29]: 3.62 µM
- TGI [29]: 31.1 µM
- GI50 [30]: 4.91 µM
- TGI [30]: 20.5 µM
- GI50 [31]: 3.02 µM
- TGI [31]: 12.5 µM
- GI50 [32]: 4.47 µM
- TGI [32]: 29.3 µM
- GI50 [33]: 4.63 µM
- TGI [33]: 21.4 µM
- GI50 [34]: 2.59 µM
- TGI [34]: 10.7 µM
- GI50 [35]: 2.62 µM
- TGI [35]: 14.7 µM
- GI50 [36]: 3.31 µM
- TGI [36]: > 100 µM
- GI50 [37]: 9.4 µM
- TGI [37]: 70.9 µM
- GI50 [38]: 4.92 µM
- TGI [38]: 24.1 µM
- GI50 [39]: 4.93 µM
- TGI [39]: 26.2 µM
- GI50 [40]: 2.55 µM
- TGI [40]: 17 µM
- GI50 [41]: 3.86 µM
- TGI [41]: 21.1 µM
- GI50 [42]: 5.46 µM
- TGI [42]: 31.3 µM
- GI50 [43]: 4.33 µM
- TGI [43]: 30 µM
- GI50 [44]: 4.62 µM
- TGI [44]: 22.4 µM
- GI50 [45]: 8.89 µM
- TGI [45]: 51.4 µM
- GI50 [46]: 3.4 µM
- TGI [46]: 22.2 µM
- GI50 [48]: 3.75 µM
- TGI [48]: 19.4 µM
- GI50 [49]: 3.93 µM
- TGI [49]: 19.6 µM
- GI50 [50]: 2.83 µM
- TGI [50]: 14.9 µM
- GI50 [51]: 3.18 µM
- TGI [51]: 42.8 µM
- GI50 [53]: 2.43 µM
- TGI [53]: 10.8 µM
- GI50 [54]: 3.48 µM
- TGI [54]: > 100 µM
- GI50 [55]: 4.12 µM
- TGI [55]: > 100 µM
- GI50 [56]: 12.9 µM
- TGI [56]: 38.9 µM
- GI50 [57]: 4.29 µM
- TGI [57]: 27.6 µM
- GI50 [58]: 4.85 µM
- TGI [58]: 18.9 µM
- GI50 [59]: 3.74 µM
- TGI [59]: 25.4 µM
